The source of these data is ChEMBL document CHEMBL1136902, “Binaphthyl scaffolded peptoids via ring-closing metathesis reactions and their anti-bacterial activities” (2009).

As usually defined, the MIC is the smallest concentration in the dilution series that meets the test's criterion for growth inhibition. Read a high MIC as weaker potency.

≈ marks a conversion by molar mass, not a printed value.

The experiment relates to Staphylococcus aureus. As to the kind of experiment: Antibacterial activity against Staphylococcus aureus ATCC 6538. Format: functional.
In turn, `COC(=O)C1CC=CCOc2ccc(cc2)C[C@H](NC(C)=O)C(=O)N[C@@H](CCCCN)C(=O)N1` (stereo partly specified) yielded an MIC of 62.5 µg/mL (≈ 132 µM).
In the case of `COC(=O)C1CC=CCOc2ccc(cc2)C[C@H](NC(C)=O)C(=O)N[C@@H](CCCNC(=N)N)C(=O)N1` (stereo partly specified) it was 62.5 µg/mL (≈ 124 µM); in that of `C=CCOc1ccc2ccccc2c1-c1c(OCC(=O)N[C@H](CCCCNC(=N)N)C(=O)N[C@H](CC=C)C(=O)OC)ccc2ccccc12.Cl`, 8 µg/mL; in that of `COC(=O)[C@@H]1C/C=C\COc2ccc3ccccc3c2-c2c(ccc3ccccc23)OCC(=O)N[C@H](CCCCNC(=N)N)C(=O)N1.Cl`, 8 µg/mL.
The compound `C=CCOc1ccc2ccccc2c1-c1c(OCC(=O)N[C@H](CCCCN)C(=O)N[C@H](CC=C)C(=O)OC)ccc2ccccc12.Cl` returned an MIC of 4 µg/mL.
The result for `C=CCOc1ccc2ccccc2c1-c1c(OCCCC(=O)N[C@H](CCCCNC(=N)N)C(=O)N[C@H](CC=C)C(=O)OC)ccc2ccccc12.Cl` reads 8 µg/mL.
In the case of `C=CCOc1ccc2ccccc2c1-c1c(OCC(=O)N[C@H](CCCCN)C(=O)OC)ccc2ccccc12.Cl` it was 32 µg/mL.
In the case of `COC(=O)C1C/C=C\COc2ccc(cc2)CC(NC(C)=O)C(=O)NC(CCCCNC(=N)N)C(=O)N1` (stereo unspecified) it was 62.5 µg/mL (≈ 121 µM); in that of `COC(=O)[C@H]1C/C=C/Cn2cc(c3ccccc32)CC(=O)N[C@H](CCCCN)C(=O)N1`, 125 µg/mL (≈ 293 µM).
Regarding `COC(=O)[C@@H]1C/C=C\COc2ccc3ccccc3c2-c2c(ccc3ccccc23)OCC(=O)N[C@H](CCCCN)C(=O)N1.Cl`, the MIC amounted to 15 µg/mL.
`COC(=O)[C@@H]1C/C=C/Cc2ccc3c(c2)c2cc(ccc2n3C(=O)OC(C)(C)C)[C@H](NC(C)=O)C(=O)N[C@H](CCCCN)C(=O)N1` returned an MIC of 15 µg/mL (≈ 23.7 µM).
The result for `COC(=O)[C@@H]1C/C=C/Cc2cc3ccccc3c(c2OC)-c2c(OC)c(cc3ccccc23)CC(NC(C)=O)C(=O)N[C@H](CCCCN)C(=O)N1` (stereo partly specified) reads 7 µg/mL (≈ 10.1 µM).
For the compound `C=CCOc1ccc2ccccc2c1-c1c(OCCCC(=O)N[C@H](CCCCN)C(=O)N[C@H](CC=C)C(=O)OC)ccc2ccccc12.Cl`, the MIC turned out to be 15 µg/mL.
In the case of `COC(=O)[C@H]1C/C=C/Cn2cc(c3ccccc32)CCCC(=O)N[C@H](CCCCN)C(=O)N1` it was 125 µg/mL (≈ 275 µM).
The result for `COC(=O)[C@H]1C/C=C/Cn2cc(c3ccccc32)CCC(=O)N[C@H](CCCCN)C(=O)N1` reads 125 µg/mL (≈ 284 µM); that for `CN[C@H](CC(C)C)C(=O)N[C@H]1C(=O)N[C@@H](CC(N)=O)C(=O)N[C@H]2C(=O)N[C@H]3C(=O)N[C@H](C(=O)N[C@H](C(=O)O)c4cc(O)cc(O)c4-c4cc3ccc4O)[C@H](O)c3ccc(c(Cl)c3)Oc3cc2cc(c3O[C@@H]2O[C@H](CO)[C@@H](O)[C@H](O)[C@H]2O[C@H]2C[C@](C)(N)[C@H](O)[C@H](C)O2)Oc2ccc(cc2Cl)[C@H]1O` [VANCOMYCIN], 1.95 µg/mL (≈ 1.35 µM).
